The record followed here is ChEMBL document CHEMBL1201862, “PubChem BioAssay data set” (2004).

The structures appear in SMILES notation.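 Briefly, cells in 96-well plates were exposed to five compound concentrations for 48 h, and endpoints were estimated by linear interpolation. GI50 = concentration required for 50% inhibition of growth.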 Active and inactive are the calls of the source. Cut-off read from the data, not from the text of the source: active = GI50 up to about 1.1 µM and inactive = higher.

Among the test systems are HOP-18; U-251; CCRF-CEM; DMS-114; SK-MEL-2; HCC 2998; MCF7; KM-20L2; LOX IMVI; DLD-1; M19-MEL; NCI-H226; NCI/ADR-RES; 786-0; TK-10; M14.
What all share (assay): NCI tumour cell line growth inhibition, 48 h

For `COC1OC(=O)[C@H]2O[N+]([O-])=C(C)[C@@H]12` (stereo partly specified), the GI50 in the test on HOP-18, in the test on U-251, with CCRF-CEM, in the test with DMS-114, in the test with SK-MEL-2 and with HCC 2998 was > 100 µM (inactive) throughout. The GI50 is > 100 µM (inactive) with MCF7; > 100 µM (inactive) with KM-20L2; > 100 µM (inactive) in the test on LOX IMVI; > 100 µM (inactive) with DLD-1; > 100 µM (inactive) in the test on M19-MEL; > 73.5 µM (inactive) in the test on NCI-H226. In addition, the GI50 in the test on NCI/ADR-RES was > 100 µM (inactive).
Consider `NC1CCCCC1.O=P(O)(O)C(CSc1ccccc1)P(=O)(O)O`, for which the GI50 with HOP-18, in the test with U-251, with CCRF-CEM, in the test with DMS-114, with SK-MEL-2 and with HCC 2998 was > 100 µM (inactive) throughout. Besides, the GI50 with MCF7, in the test with KM-20L2, with LOX IMVI, in the test on DLD-1, with M19-MEL and in the test on NCI-H226 was > 100 µM (inactive) each time. The GI50 with NCI/ADR-RES was > 100 µM (inactive).
Take `CN(C)c1n/c(=N/c2ccc(/N=c3\nc(N(C)C)ss3)cc2)ss1`: the GI50 in the test with HOP-18 was 54 µM (inactive); in the test on U-251 it was 29.9 µM (inactive); in the test on CCRF-CEM, 4.99 µM (inactive); in the test with 786-0, 63.7 µM (inactive); with DMS-114, 16.7 µM (inactive); in the test with TK-10, 24.2 µM (inactive). In addition, the GI50 with SK-MEL-2 was 69.5 µM (inactive); with HCC 2998, > 83 µM (inactive); in the test with KM-20L2 it was 48.3 µM (inactive); with LOX IMVI, > 44.8 µM (inactive); in the test on DLD-1, 13.4 µM (inactive); with M19-MEL, 20.3 µM (inactive). Further, the GI50 was 56.5 µM (inactive) with NCI-H226 and 12.9 µM (inactive) in the test with M14.
In the case of `Cc1c2ccncc2cc2c1[nH]c1ccccc12`, the GI50 in the test with HOP-18 was 0.789 µM (active); in the test with U-251 it was 2.86 µM (inactive); in the test with CCRF-CEM, 3.78 µM (inactive); in the test with DMS-114 it was 5.27 µM (inactive); with SK-MEL-2, 7.43 µM (inactive); with HCC 2998, 5.04 µM (inactive). Moreover, the GI50 in the test on MCF7 was 1.57 µM (inactive); with KM-20L2 it was 3.37 µM (inactive); in the test with LOX IMVI it was 2.33 µM (inactive); in the test with DLD-1, 5.01 µM (inactive); with M19-MEL, 3.81 µM (inactive); in the test with NCI-H226 it was 6.14 µM (inactive). Further, the GI50 in the test with NCI/ADR-RES was 3.01 µM (inactive).
As to `COc1cc(C(=O)C/C(CCC(=O)Nc2ccc(Cl)cc2Cl)=N/NC(=O)C(=O)NN)ccc1O`, the GI50 in the test on HOP-18, in the test with U-251, in the test with CCRF-CEM, in the test with 786-0, with DMS-114 and in the test on TK-10 was > 100 µM (inactive) in each case. Further, the GI50 in the test with HCC 2998 is > 100 µM (inactive); in the test with KM-20L2, > 100 µM (inactive); with LOX IMVI it was 43.3 µM (inactive); in the test with DLD-1, > 100 µM (inactive); with M19-MEL, > 100 µM (inactive); in the test with NCI-H226, > 100 µM (inactive). Moreover, in the test on M14, the GI50 is > 100 µM (inactive).
